Measurements reported in patent US20220218678A1, “USE OF 1-PHENYL-2-PYRIDINYL ALKYL ALCOHOL DERIVATIVES FOR TREATING CYSTIC FIBROSIS” (CHIESI FARMACEUTICI S.p.A., priority 2017, published 2022).

What was measured:
[1] = diarrhea, weight loss, nausea, headache, insomnia and others; cited from earlier work
CFTR = target: T1, CFTR (Homo sapiens, UniProt P13569, DEL508-508); experiment: Flow cytometry, presence of CFTR epitopes on CFBE41o− cells; assay type: cell-based; conditions: 24 h of treatment, CHF6001 30 nM, Roflumilast 50 nM
T1 construct: cells expressing endogenous ΔF508-CFTR; endogenous in cells; host or cells: CFBE41o− human CF bronchial epithelial cell line (gift from D. C. Gruenert), homozygous ΔF508
T1 sequence (P13569 with tags, fused parts or gaps DEL508-508): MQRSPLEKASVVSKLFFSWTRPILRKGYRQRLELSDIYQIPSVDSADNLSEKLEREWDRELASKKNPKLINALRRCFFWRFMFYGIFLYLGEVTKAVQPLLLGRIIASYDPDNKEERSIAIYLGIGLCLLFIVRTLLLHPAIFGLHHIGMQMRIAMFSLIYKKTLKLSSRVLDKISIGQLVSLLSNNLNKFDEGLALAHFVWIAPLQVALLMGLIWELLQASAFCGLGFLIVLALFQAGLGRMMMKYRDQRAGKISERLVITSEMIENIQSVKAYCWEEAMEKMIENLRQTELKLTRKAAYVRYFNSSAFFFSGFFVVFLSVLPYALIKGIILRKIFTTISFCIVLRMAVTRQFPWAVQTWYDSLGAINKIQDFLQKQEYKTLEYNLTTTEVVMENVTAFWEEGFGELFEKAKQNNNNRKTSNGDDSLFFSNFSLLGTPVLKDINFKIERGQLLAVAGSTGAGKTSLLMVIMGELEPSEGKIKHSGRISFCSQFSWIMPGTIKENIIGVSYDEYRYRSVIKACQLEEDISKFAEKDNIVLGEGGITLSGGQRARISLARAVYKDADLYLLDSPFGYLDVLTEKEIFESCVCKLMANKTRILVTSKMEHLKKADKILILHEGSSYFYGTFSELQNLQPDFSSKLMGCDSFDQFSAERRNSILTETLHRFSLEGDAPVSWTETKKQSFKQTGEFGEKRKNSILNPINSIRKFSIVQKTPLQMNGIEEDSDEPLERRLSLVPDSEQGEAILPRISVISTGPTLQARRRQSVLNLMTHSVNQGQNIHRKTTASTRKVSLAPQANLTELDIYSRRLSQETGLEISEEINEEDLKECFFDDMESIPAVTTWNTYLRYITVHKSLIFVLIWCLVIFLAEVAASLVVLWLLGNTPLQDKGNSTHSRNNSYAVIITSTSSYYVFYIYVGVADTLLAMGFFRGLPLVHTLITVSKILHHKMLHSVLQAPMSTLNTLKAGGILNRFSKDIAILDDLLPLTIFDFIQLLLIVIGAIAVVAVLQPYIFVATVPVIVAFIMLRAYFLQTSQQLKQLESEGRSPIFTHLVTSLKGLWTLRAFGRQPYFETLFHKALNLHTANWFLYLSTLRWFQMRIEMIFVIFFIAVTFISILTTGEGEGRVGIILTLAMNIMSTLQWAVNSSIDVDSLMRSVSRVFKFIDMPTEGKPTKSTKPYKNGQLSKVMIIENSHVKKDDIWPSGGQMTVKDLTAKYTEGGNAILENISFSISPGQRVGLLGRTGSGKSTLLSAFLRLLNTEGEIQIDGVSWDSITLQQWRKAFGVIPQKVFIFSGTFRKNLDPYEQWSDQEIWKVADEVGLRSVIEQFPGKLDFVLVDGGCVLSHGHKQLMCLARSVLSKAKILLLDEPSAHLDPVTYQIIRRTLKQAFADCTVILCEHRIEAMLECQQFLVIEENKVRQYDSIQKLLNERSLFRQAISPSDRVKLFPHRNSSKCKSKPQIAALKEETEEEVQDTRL
Description: CFBE41o− cells were seeded 1.5×10^5 cells/well into a 6 multi-well dish in EMEM medium, supplemented with 10% FBS and 1 mM L-glutamine, and maintained in incubator at 37° C. overnight. The day after, the cells were treated with different agents, as follows: VRT809 (5 μM), CHF6001 (30 nM), Roflumilast (50 nM) or the vehicle DMSO. After 24 h cells were harvested.
Specifically for detection of the extracellular domain of CFTR, the cells were washed with PBS 1× and successively stained with the anti-CFTR monoclonal antibody CF3 (Abeam), suitable for detection of the extracellular domain of CFTR. After washing, the secondary antibody goat anti-mouse (μ-chain) conjugated with Alexa Fluor-488 (Invitrogen, Carlsbad, U.S.A.) was added (1 μg for 10^6 cells) for 30 min on ice. […]
Finally cells were washed twice and then analysed at MACSQuant Analyzer (Miltenyi Biotech, Cologne, Germany), and data were analysed with FlowJo Software (Tree Star, Inc).
The percentage of events with background noise (determined with IgM isotype or peptide signal) was subtracted and the result was expressed as %-values of CFTR positive cells. Geometrical means of the signal in the green channel were also obtained and a ratio between the signals obtained with the extracellular-domain specific antibody CF3 and with the polyclonal antibody (Alomone), respectively, with respect to the baseline signal was calculated (MFI). […]

[2] = healthy volunteers, daily doses of up to 4800 μg (4.8 mg) for 14 days; cited from earlier work
ΔF508 CFTR = target: T2, ΔF508 CFTR (Homo sapiens, UniProt P13569, DEL508-508); experiment: HS-YFP assay, CFTR potentiator activity in CFBE41o− cells; assay type: cell-based; conditions: 10 minutes exposure, following CFTR correction by VRT809 (5 μM, 24 h)
T2 construct: cells expressing endogenous ΔF508-CFTR; endogenous in cells; host or cells: CFBE41o− human CF bronchial epithelial cell line (gift from D. C. Gruenert), homozygous ΔF508
T2 sequence (P13569 with tags, fused parts or gaps DEL508-508): as above
Description: The CF human bronchial epithelial cell line (CFBE41o−), homozygous for the ΔF508 mutation of the CFTR protein (Ehrhard et al., 2006, Cell Tissue Res. Vol. 323, p. 405-415; kind gift from D. C. Gruenert, California Pacific Medical Center Research Institute, San Francisco, Calif., USA) and the human bronchial epithelial cell line 16HBE14o−, wildtype (wt) for the CFTR protein (kindly provided by P. Davis, Case Western Reserve University School of Medicine, Cleveland, Ohio, USA) were maintained in EMEM (Lonza) supplemented with 10% FBS and 1% Glutamax (Sigma). […]
The CFTR activity in epithelial cells was evaluated by Yellow Fluorescence Protein (YFP) with a protocol modified from the method published by Averna et al. (PLoS One, 2013, vol. 8, e66089). […]
The potential effect of different agents on the activity of CFTR in CFBE41o− cells was analysed by the HS-YFP assay, combining a short exposure (10 minutes) with agents as follows: CHF6001, Roflumilast or VRT 770 (5 μM), alone or in combination, with a 24 h pre-treatment with the CFTR corrector VRT809 (5 μM). […]

SMILES	frequency of common adverse effects in subjects [1]	presence of CFTR epitopes (CF3 extracellular, Alomone intracellular) (CFTR)	safety and tolerability [2]	CFTR activity (delta fluorescence un-stimulated versus stimulated cells) (ΔF508 CFTR)
O=C(Nc1c(Cl)cncc1Cl)c1ccc(OC(F)F)c(OCC2CC2)c1 [Roflumilast, 3-cyclo-propylmethoxy-4-difluoromethoxy-N-[3,5-di-chloropyrid-4-yl]-benzamide]	1-10%	restore the presence of CFTR epitopes	–	–
CS(=O)(=O)Nc1ccc(C(=O)OC(Cc2c(Cl)c[n+]([O-])cc2Cl)c2ccc(OC(F)F)c(OCC3CC3)c2)cc1OCC1CC1 (centres unmarked) [CHF6001, 3-Cyclopropylmethoxy-4-methanesulfonylamino-benzoic acid 1-(3-cyclopropylmethoxy-4-difluoromethoxy-phenyl)-2-(3,5-dichloro-1-oxy-pyridin-4-yl)-ethyl ester]	–	restore the presence of CFTR epitopes	Good safety and tolerability	comparable to the reference compound VRT 770
